By GI50 is commonly meant the concentration that inhibits growth by half.

The text below walks through data of ChEMBL document CHEMBL1201862, “PubChem BioAssay data set” (2004).

“And” between values parts separate entries of the source, which are not always exact repeats. Identical values can stand only once.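 Method: 48-hour compound exposure of cells in 96-well plates, five concentrations, linear interpolation of endpoints. Abbreviation: GI50, concentration required for 50% inhibition of growth.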 The source made the active and inactive calls. No stated cut-off is given here; in the data, active = GI50 up to about 1.1 µM and inactive = higher.

Among the test systems are 786-0; CAKI-1; NCI-H460; SNB-75; MDA-N; A498; MCF7; NCI-H23; SK-MEL-5; UACC-62; A549; BT-549; SN12C; HCC 2998; SF-295; CCRF-CEM; LOX IMVI; HL-60; OVCAR-4; SR.
Common to all, as to assay: DTP human tumour cell line panel, 48 h

For `Cc1ccc(S(=O)(=O)SC/C=C\CSS(=O)(=O)c2ccc(C)cc2)cc1`, the GI50 in the test with 786-0 was 12.2 µM (inactive) and 17.9 µM (inactive); with CAKI-1, 21.4 µM (inactive) and 18.2 µM (inactive); in the test on NCI-H460, 30.3 µM (inactive) and 35.6 µM (inactive); in the test on SNB-75 it was 19.1 µM (inactive) and 36.6 µM (inactive); in the test on MDA-N, 14.4 µM (inactive); in the test on A498, 57.1 µM (inactive) and 49.4 µM (inactive). Also, the GI50 with MCF7 is 3.51 µM (inactive); in the test with NCI-H23, 16.6 µM (inactive) and 12.4 µM (inactive); in the test with SK-MEL-5, 27.6 µM (inactive) and 29.3 µM (inactive); in the test on UACC-62 it was 17.6 µM (inactive) and 20.9 µM (inactive); in the test with A549, 31.5 µM (inactive) and 35.7 µM (inactive); with BT-549, 9.59 µM (inactive). The GI50 in the test on SN12C is 18.8 µM (inactive) and 9.71 µM (inactive); in the test on HCC 2998, 49.1 µM (inactive) and 55 µM (inactive); with SF-295, 19.1 µM (inactive) and 37.7 µM (inactive); in the test with CCRF-CEM, 0.262 µM (active).
Consider `COC1=NC(NC2OCC(O)C(O)C2O)=C(NC(C)=O)CN1C` (centres undefined), for which the GI50 with 786-0, in the test on CAKI-1, with NCI-H460, in the test on SNB-75, with MDA-N and with A498 was > 100 µM (inactive) throughout. Besides, the GI50 with MCF7, with LOX IMVI, in the test with HL-60, in the test with NCI-H23, in the test with SK-MEL-5 and with UACC-62 was > 100 µM (inactive) in each case. In addition, the GI50 in the test on A549, with BT-549, in the test with OVCAR-4, with HCC 2998, in the test on SF-295 and in the test with CCRF-CEM was > 100 µM (inactive) throughout.
Turning to `O[C@H]1[C@H](O)[C@@H](O)[C@@]2(O)CC[C@@H]1N2`, the GI50 with 786-0, in the test with CAKI-1, in the test on NCI-H460, in the test on SNB-75, in the test on MDA-N and with A498 was > 100 µM (inactive) each time. Moreover, the GI50 with MCF7, with LOX IMVI, with NCI-H23, in the test with SK-MEL-5, in the test with UACC-62 and with A549 was > 100 µM (inactive) throughout. For the same compound, the GI50 in the test on BT-549, in the test on SN12C, in the test with OVCAR-4, in the test on HCC 2998, in the test with SF-295 and with CCRF-CEM was > 100 µM (inactive) each time.
As to `Cc1cc2occ(S(=O)(=O)NC(=O)Nc3ccc(Cl)cc3)c(=O)c2c(=O)o1`, the GI50 with 786-0, in the test with CAKI-1, in the test on NCI-H460, in the test with SNB-75, with MDA-N and with A498 was > 100 µM (inactive) in each case. Besides, the GI50 in the test on MCF7 is > 100 µM (inactive); in the test on LOX IMVI it was > 100 µM (inactive); with HL-60, > 100 µM (inactive); in the test with NCI-H23, > 100 µM (inactive); with SK-MEL-5 it was > 100 µM (inactive); with UACC-62, 23.4 µM (inactive). Besides, the GI50 with A549, with BT-549, in the test on SN12C, in the test with OVCAR-4, in the test on HCC 2998 and with SF-295 was > 100 µM (inactive) in each case. For the same compound, in the test with CCRF-CEM, the GI50 is > 100 µM (inactive).
With `COC(=O)c1sc(=S)sc1SCc1ccc(CSc2sc(=S)sc2C(=O)OC)cc1`, the GI50 in the test with 786-0, in the test on CAKI-1, in the test on NCI-H460, with SNB-75, in the test with MDA-N and in the test on A498 was > 100 µM (inactive) each time. The GI50 with MCF7, in the test on LOX IMVI, with NCI-H23, with SK-MEL-5, in the test on UACC-62 and in the test with A549 was > 100 µM (inactive) throughout. In addition, the GI50 with BT-549, with SN12C, in the test on OVCAR-4, in the test on HCC 2998, in the test with SF-295 and in the test with CCRF-CEM was > 100 µM (inactive) each time.
In the case of `CC1=CC(=O)c2ccc3c4ccccc4n(C)c3c2C1=O`, the GI50 in the test on 786-0 was 56 µM (inactive); in the test on CAKI-1, 36.2 µM (inactive); in the test with NCI-H460 it was 29.4 µM (inactive); in the test on SNB-75 it was 54.1 µM (inactive); in the test on MDA-N, 16.6 µM (inactive); in the test on A498 it was 83.6 µM (inactive). In addition, the GI50 in the test on MCF7 was 12 µM (inactive); in the test on HL-60 it was 22.8 µM (inactive); with NCI-H23 it was 14 µM (inactive); with SK-MEL-5 it was 13.6 µM (inactive); with A549 it was 48.2 µM (inactive); in the test on BT-549, 41.8 µM (inactive). Further, the GI50 in the test on SN12C is > 69 µM (inactive); with OVCAR-4, 74 µM (inactive); with HCC 2998, > 96.4 µM (inactive); in the test with SF-295, > 54.5 µM (inactive); with CCRF-CEM, 20.8 µM (inactive).
Consider `Oc1c(OCc2nnc(CCCCCCCCc3nnc(COc4ccc5ccccc5c4O)n3Nc3ccccc3)n2Nc2ccccc2)ccc2ccccc12`, for which the GI50 in the test on 786-0 is 13.3 µM (inactive); in the test with CAKI-1, 0.676 µM (active); in the test with NCI-H460 it was 1.26 µM (inactive); in the test with SNB-75 it was 17.5 µM (inactive); in the test with MDA-N, 1.62 µM (inactive); in the test on A498, 16.1 µM (inactive). In addition, the GI50 is 3.52 µM (inactive) with MCF7; 8.69 µM (inactive) in the test on NCI-H23; 1.29 µM (inactive) in the test with SK-MEL-5; 0.671 µM (active) in the test with UACC-62; 6.46 µM (inactive) in the test with A549; 8.73 µM (inactive) with BT-549. Also, the GI50 in the test on SN12C is 13.9 µM (inactive); with OVCAR-4 it was 5.42 µM (inactive); in the test on HCC 2998, 5.26 µM (inactive); in the test with SF-295, 0.301 µM (active).
In the case of `O=c1[nH]c(=O)n(C2CC(O)C(CO)O2)cc1OCc1ccccc1` (centres undefined), the GI50 in the test on 786-0, in the test on CAKI-1, with NCI-H460, in the test with SNB-75, in the test with MDA-N and in the test on MCF7 was > 100 µM (inactive) each time. Also, the GI50 with LOX IMVI, in the test with HL-60, with NCI-H23, with SR, with SK-MEL-5 and in the test with UACC-62 was > 100 µM (inactive) each time. The GI50 in the test with A549, with BT-549, in the test on SN12C, in the test with OVCAR-4 and in the test with CCRF-CEM was > 100 µM (inactive) each time.
